Test results reported in patent publication US7691874B2, “Neuroprotective properties of dextrorotatory morphinans” (priority 2004, dated 2010).
Marks after values point to notes of the source that are not given here.

Key:
σ1 receptors = σ1 receptors (Homo sapiens, UniProt Q99720); conditions: cited from earlier work
MPTP-treated mice [1] = experiment: MPTP model, HM versus L-dopa/carbidopa: nigral TH-IR; format: in vivo; conditions: HM 24 mg/kg i.p., L-dopa 200 mg/kg p.o., carbidopa 20 mg/kg p.o.
Experimental: FIGS. 21A-21G show effects of carbidopa, L-dopa, carbidopa+L-dopa and HM on the nigral tyrosine hydroxylase-like immunoreactivity (TH-IR) of the mice treated with MPTP. […] Magnification=40×.
(§1) A prescription drug for treating Parkinsonian patients is L-dopa or carbidopa plus L-dopa. Thus, the neuroprotective effects of HM was compared with L-dopa, carbidopa, or carbidopa plus L-dopa. […] Locomotor activity was examined for 60 min after final treatment of MPTP. Mice were sacrificed at 24 h after final MPTP administration. HM (24 mg/kg, i.p.), L-dopa (200 mg/kg, p.o.) with or without carbidopa (20 mg/kg, p.o.) was administered for 2 weeks before first MPTP challenge.

MA-treated mice [2] = experiment: MA model, HM versus L-dopa/carbidopa: nigral TH-IR; conditions: mouse, in vivo
Description: FIGS. 33A-33G show effects of carbidopa, L-dopa, carbidopa plus L-dopa, and HM on the nigral tyrosine hydroxylase-like immunoreactivity (TH-IR) of the mice treated with MA. […] Magnification=40×.

CB1 receptor = CB1 receptor (Rattus norvegicus, UniProt P20272); format: biochemical
CB1 receptor, sequence (P20272 whole entry): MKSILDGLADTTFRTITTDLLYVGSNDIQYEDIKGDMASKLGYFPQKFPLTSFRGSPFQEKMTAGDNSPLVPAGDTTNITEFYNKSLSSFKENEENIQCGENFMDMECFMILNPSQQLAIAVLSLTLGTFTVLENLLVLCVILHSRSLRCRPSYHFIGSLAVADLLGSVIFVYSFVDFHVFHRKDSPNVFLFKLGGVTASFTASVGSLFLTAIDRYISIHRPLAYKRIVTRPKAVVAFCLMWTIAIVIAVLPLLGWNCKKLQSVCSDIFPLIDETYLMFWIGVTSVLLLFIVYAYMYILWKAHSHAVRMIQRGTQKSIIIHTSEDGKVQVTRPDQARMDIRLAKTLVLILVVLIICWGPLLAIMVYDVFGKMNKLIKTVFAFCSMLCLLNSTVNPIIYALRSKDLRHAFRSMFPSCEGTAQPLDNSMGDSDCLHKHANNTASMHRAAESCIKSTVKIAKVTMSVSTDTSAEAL

C57 BL/6 mice = experiment: Locomotor activity and locomotor pattern following repeated administration of morphinans or PCP; format: in vivo
LPS-treated mice [3] = experiment: LPS model, HM versus L-dopa/carbidopa: nigral TH-IR; conditions: mouse, in vivo
Description: FIG. 27 show effects of carbidopa, L-dopa, carbidopa+L-dopa and HM on the nigral tyrosine hydroxylase-like immunoreactivity (TH-IR) of the mice treated with LPS.

MPTP-treated mice [4] = experiment: Striatal dopamine and metabolites (HPLC-EC) in MPTP-treated mice; conditions: for Concentration DA in the striatum: mean ± S.E.M., 8 animals
Experimental: (§2) Each morphinan was administered 30 min prior to every injection of MPTP for last three days (from day 4th to day 7th). Animals were sacrificed 24 h after the last MPTP treatment.
Brains were rapidly removed and cut into 1 mm coronal sections on ice. The striatum was punched using a fine pasteur pipette (3, 21, 22), and stored at −70° C. DA and its metabolites, 3,4-dihydroxyphenylacetic acid (DOPAC) and homovanilic acid (HVA) were measured by HPLC-eletrochemical detection (3, 21, 22). Briefly, the striatum was homogenized in 0.2 M perchloric acid containing 3,4-dihydroxybenzylamine as an internal standard (10 mg wet weight of tissue per ml). The homogenate was centrifuged and a 20-μl aliquot of the supernatant was injected into the HPLC equipped with an ODS-C18 column. The mobile phase was comprised of 26 ml of acetonitrile, 21 ml of tetrahydrofuran and 960 ml of 0.15 M monochloroacetic acid (pH 3.0) containing 50 mg/l of EDTA and 200 mg/l of sodium octyl sulfate. The amount of DA, DOPAC and HVA were determined by comparison of peak height ratio of tissue sample with standards, and were expressed in nanograms per 100 mg of wet weight of tissue.
Each morphinan was administered 30 min before every injection of MPTP for last three days. Animals were sacrificed at 24 h after the last MPTP injection.

MA-treated mice [5] = experiment: Hypokinesia induced by MA; format: in vivo; conditions: 12 and 24 mg/kg; 3 days after final MA
MA-treated mice [6] = experiment: MA-induced loss of nigral TH-IR with CB1 agonist/antagonist and HM; conditions: given alone
Experimental: Compounds were administered 3 days before and after MA injection.

MA-treated mice [7] = experiment: MA-induced conditioned place preference with CB1 modulation
Experimental: The control mice received an i.p. injection of saline just before entering the white or black compartment. Cocaine or MA dissolved in saline was administered immediately before the mice were placed in the white compartment. To test the effect of cocaine alone or MA alone or in combination with exemplified morphinans (DM, HM, AM, CM or DF), each morphinan was administered 2 hr before cocaine or saline injection.
On day 1, the mice were pre-exposed to the test apparatus for 5 min. The guillotine doors were raised and the mice were allowed to move freely between the two compartments. On day 2, the time each mouse spent in each compartment was recorded for 15 min. On days 3, 5, 7, 9, 11, and 13, the mice were injected with cocaine before being confined to the white compartment, the non-preferred side, for 20 min. On days 4, 6, 8, 10, and 12, the mice were injected with saline before being confined to the black compartment, the preferred side, for 20 min. On day 14, the guillotine doors were raised. The mice were initially placed in the tunnel and the time spent by the mice in the two compartments was recorded for 15 min. The scores were calculated from the differences in the time spent in the white compartment in the testing and pre-testing phases.

LPS-treated mice [8] = experiment: LPS model, HM versus L-dopa/carbidopa: locomotor activity; format: in vivo; conditions: 3 weeks after LPS
Experimental: Locomotor activity was examined for 60 min at 3 weeks after LPS treatment. LPS-induced significant reduction (P<0.01 vs. saline treatment) in locomotor activity was attenuated by L-dopa (P<0.05), carbidopa+L-dopa (P<0.05) or HM (P<0.01) (FIGS. 24 and 25).

cocaine-treated mice = experiment: Cocaine-induced behavioural sensitization with CB1 modulation
MPTP-treated mice [9] = experiment: Nigral tyrosine hydroxylase-like immunoreactivity in MPTP-treated mice; conditions: 24 mg/kg i.p.
Experimental: as §2

MA-treated mice [10] = experiment: Striatal dopamine and metabolites in MA-treated mice; format: in vivo; conditions: for Concentration DA in the striatum: 3 days after final MA
Description: Mice were sacrificed at 3 days after final MA injection.

MA-treated mice [11] = experiment: Nigral TH-IR in MA-treated mice; conditions: 24 mg/kg i.p.
MPTP-treated mice [12] = experiment: Hypokinesia (reduction in locomotor activity) induced by MPTP; format: in vivo; conditions: 12 or 24 mg/kg i.p. 30 min before MPTP (20 mg/kg/day x 7), last three days
LPS-treated mice [13] = experiment: LPS model, HM versus L-dopa/carbidopa: mortality; format: in vivo; conditions: intrastriatal LPS 2 μg x 4/head; 2 weeks
Experimental: Mortality was observed by 2 weeks after LPS injection. *P<0.01 vs. Saline+LPS (x^2-test).
The neuroprotective effect of HM was compared with L-dopa, carbidopa, or carbidopa plus L-dopa in response to dopaminergic damage induced by LPS. Intrastriatal injection of LPS (2 μg×4/head) produced high mortality (ten animals died out of twelve animals in the 2 weeks after LPS administration).

MPTP-treated mice [14] = experiment: MPTP model, HM versus L-dopa/carbidopa: locomotor activity; format: in vivo; conditions: HM 24 mg/kg i.p., L-dopa 200 mg/kg p.o., carbidopa 20 mg/kg p.o., 2 weeks before MPTP
Experimental: FIGS. 20A-20B show effects of carbidopa, L-dopa, carbidopa+L-dopa and HM on the changes in locomotor activity (A) and locomotor pattern (B) induced by MPTP in mice.
as §1

LPS-treated mice [15] = experiment: LPS-induced mortality with CB1 agonist/antagonist and HM; format: in vivo; conditions: given alone: HM 20, ACEA 2, AM-251 0.3 mg/kg; 2 weeks after bilateral intrastriatal LPS
Experimental: Mortality was observed by 2 weeks after bilateral LPS intrastriatal injection (one side: 2 μg×2).

σ1 receptors, sequence (Q99720 whole entry): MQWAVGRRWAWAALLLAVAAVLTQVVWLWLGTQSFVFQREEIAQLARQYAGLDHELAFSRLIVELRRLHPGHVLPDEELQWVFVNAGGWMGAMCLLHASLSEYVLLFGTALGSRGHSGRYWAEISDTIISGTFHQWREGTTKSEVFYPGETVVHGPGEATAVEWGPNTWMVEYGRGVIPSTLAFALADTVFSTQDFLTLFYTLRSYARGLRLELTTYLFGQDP

Oc1ccc2c(c1)[C@@]13CCCC[C@H]1[C@@H](C2)NCC3 [HM, 3-hydroxymorphinan]
affinity for σ1 receptors (σ1 receptors): high affinity ligands | effect on MPTP-induced nigral loss in TH-IR (MPTP-treated mice [1]): significantly attenuated | effect on MA-induced nigral loss in TH-IR (MA-treated mice [2]): more pronounced than that of carbidopa+L-dopa | effect on CP 55940-induced stimulation in GTP γS binding (CB1 receptor): decreased | functional property at CB1 receptor (CB1 receptor): partial agonist of CB1 receptor, as well as a CB1 antagonist | inhibition of GTP γS binding (CB1 receptor; 100 nM): about 60% | locomotor pattern (tracings) (C57 BL/6 mice; 40 mg/kg i.p. (PCP 5 mg/kg), FIG. 3): did not produce significant marginal activity | marginal activity (circling behaviour; absolute turn angular) (C57 BL/6 mice; 20 or 40 mg/kg i.p./day x 7 (PCP 2.5 or 5 mg/kg), 3-min period, vs saline): did not significantly affect marginal activity | locomotor activity (total distance moved) (C57 BL/6 mice; 20 or 40 mg/kg i.p./day x 7 days, 30 min after final treatment, vs saline): comparable to that with saline | effect on LPS-induced loss in nigral TH-IR (LPS-treated mice [3]): most effective in attenuating LPS-induced reduction in TH-IR | effect on MPTP-induced reductions in striatal DA, DOPAC and HVA (MPTP-treated mice [4]; 24 mg/kg pretreatment): significantly protected | Concentration DOPAC in the striatum (MPTP-treated mice [4]; morphinan 12 (mg/kg) + MPTP): 68 ± 7 ng/100 mg wet tissue | Concentration HVA in the striatum (MPTP-treated mice [4]; morphinan 12 (mg/kg) + MPTP): 84 ± 8 ng/100 mg wet tissue | Concentration DA in the striatum (MPTP-treated mice [4]; morphinan 12 (mg/kg) + MPTP): 582 ± 74 ng/100 mg wet tissue | Concentration DOPAC in the striatum (MPTP-treated mice [4]; morphinan 24 (mg/kg) + MPTP): 98 ± 9^c ng/100 mg wet tissue | Concentration HVA in the striatum (MPTP-treated mice [4]; morphinan 24 (mg/kg) + MPTP): 104 ± 10^c ng/100 mg wet tissue | Concentration DA in the striatum (MPTP-treated mice [4]; morphinan 24 (mg/kg) + MPTP): 896 ± 79^c ng/100 mg wet tissue | effect on MA-induced reduction in locomotor activity (MA-treated mice [5]): appeared to be the most effective in preventing reduction in motor activity | effect on MA-induced reduction in nigral TH-IR (MA-treated mice [6]): Prevents Methamphetamine (MA)-induced Reduction in Tyrosine Hydroxylase-like Immunoreactivity | CPP response of the compound itself (MA-treated mice [7]; AM 251 0.3, HM 20, ACEA 2 mg/kg i.p., no MA): Neither saline-, AM 251 (0.3 mg/kg, i.p.)-treated nor HM (20 mg/kg)-treated animals showed any CPP responses | effect on MA-induced CPP (MA-treated mice [7]; mouse, in vivo): significantly reduced the CPP produced by MA | effect on LPS-induced reduction in locomotor activity (LPS-treated mice [8]): attenuated | behavioural effects of the compound itself (cocaine-treated mice; AM 251 0.3, ACEA 2, HM 20 mg/kg, no cocaine): Neither saline-, AM 251 (0.3 mg/kg)-, ACEA (2 mg/kg)-treated nor HM (20 mg/kg)-treated animals showed any specific behavioural effects | effect on cocaine-induced behavioural sensitization (cocaine-treated mice; cocaine 10 mg/kg/day i.p. x 7, challenge one month later): significantly reduced | effect on MPTP-induced decrease in nigral TH-positive cells (MPTP-treated mice [9]): significantly attenuated the decrease in TH-positive cells | effect on MA-induced reductions in striatal DA, DOPAC and HVA (MA-treated mice [10]; 24 mg/kg pretreatment): significantly protected | Concentration DOPAC in the striatum (MA-treated mice [10]; morphinan 12 (mg/kg) + MA): 88 ± 10 ng/100 mg wet tissue | Concentration HVA in the striatum (MA-treated mice [10]; morphinan 12 (mg/kg) + MA): 82 ± 8 ng/100 mg wet tissue | Concentration DA in the striatum (MA-treated mice [10]; morphinan 12 (mg/kg) + MA, mean ± S.E.M., 8 animals): 685 ± 64 ng/100 mg wet tissue | Concentration DOPAC in the striatum (MA-treated mice [10]; morphinan 24 (mg/kg) + MA): 103 ± 9^d^ ng/100 mg wet tissue | Concentration HVA in the striatum (MA-treated mice [10]; morphinan 24 (mg/kg) + MA): 100 ± 11^c ng/100 mg wet tissue | Concentration DA in the striatum (MA-treated mice [10]; morphinan 24 (mg/kg) + MA): 864 ± 82^d ng/100 mg wet tissue | effect on MA-induced decrease in nigral TH-positive cells (MA-treated mice [11]): significantly attenuated the decrease in TH-positive cells | effect on MPTP-induced reduction in locomotor activity (MPTP-treated mice [12]): significantly prevented MPTP-induced reduction in locomotor activity | effect on mortality induced by LPS (LPS-treated mice [13]): most pronounced | effect on MPTP-induced decrease in locomotor activity (MPTP-treated mice [14]): significantly increased | effect on LPS-induced mortality (LPS-treated mice [15]): No animal died
